Patent publication US20240166624A1, “PPARG INVERSE AGONISTS AND USES THEREOF” (Flare Therapeutics Inc., priority 2021, published 2024)

How the values were obtained:
[1] = test system: ANGPTL4, a PPARG target gene, in HT1197 (RXRA S427F mutation) cells; test: Bladder cancer pharmacodynamic assay, HT1197 cell assay (qPCR of ANGPTL4); format: cell-based; details: Homo sapiens, 24 hours, 100 nM compound, relative to DMSO control
Outline: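 5637 (PPARG amplified) and HT1197 (RXRA S427F) cells treated 24 h with PPARG inverse agonists. FABP4 and ANGPTL4 expression measured by qPCR, normalised to TBP, and reported relative to DMSO control by ΔΔCt.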

[2] = molecular target: T1, PPARG/RXRA LBD heterodimer (Homo sapiens, UniProt P37231); test: PPARγ-MED1 blockade assay (TR-FRET, biotinylated MED1 LxxLL peptide); format: biochemical; details: WT PPARG LBD/WT RXRA LBD, 80 nM Rosiglitazone, 3 hours
T1 construct: His-TEV-Q203-Y477; Uniprot ID P37231-2; made in house; host or cells: E. coli
T1 sequence (P37231 203-477 isoform P37231-2): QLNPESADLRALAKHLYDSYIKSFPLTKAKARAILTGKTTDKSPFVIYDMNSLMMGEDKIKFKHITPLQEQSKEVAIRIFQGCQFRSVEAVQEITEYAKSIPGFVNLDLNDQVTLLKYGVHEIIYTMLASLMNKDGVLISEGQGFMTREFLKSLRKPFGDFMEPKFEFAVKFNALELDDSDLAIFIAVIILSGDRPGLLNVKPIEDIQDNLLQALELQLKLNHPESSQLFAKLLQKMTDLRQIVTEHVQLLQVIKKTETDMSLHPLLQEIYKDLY
T1 sequence (P19793 228-462 partner limits assumed): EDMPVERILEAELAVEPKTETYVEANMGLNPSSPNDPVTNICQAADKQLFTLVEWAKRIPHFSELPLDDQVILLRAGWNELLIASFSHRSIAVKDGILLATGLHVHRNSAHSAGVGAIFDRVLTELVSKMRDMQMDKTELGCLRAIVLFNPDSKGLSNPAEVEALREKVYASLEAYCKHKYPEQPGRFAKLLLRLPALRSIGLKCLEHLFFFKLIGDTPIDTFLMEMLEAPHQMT
Outline: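 TR-FRET measuring biotinylated MED1 LxxLL peptide association with 2 nM each His-PPARG LBD (Q203-Y477) and Flag-RXRA LBD (E228-T462), E. coli expressed. Read after 3 h incubation; ratios normalized to DMSO (0%) and GW9662 minimum (100%) for IC50 and maximal MED1 repulsion.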

[3] = molecular target: T2, PPARG/RXRA LBD heterodimer (Homo sapiens, UniProt P37231); test: PPARγ-NCOR1 recruitment assay (TR-FRET, biotinylated NCOR1 ID2 peptide); format: biochemical; details: 80 nM Rosiglitazone, 3 hours, read-out: PPARG-NCOR recruitment assay EC50
T2 construct: His-TEV-Q203-Y477; Uniprot ID P37231-2; made in house; host or cells: E. coli
Outline: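 2 nM each of E. coli-expressed PPARG LBD (Q203-Y477) and RXRA LBD (WT or S427F, E228-T462) with biotinylated NCOR1 ID2 peptide, incubated 3 h; TR-FRET read at Ex/Em 615/665. Ratios normalized to DMSO (0%) and T0070907 maximum (100%) for EC50 and maximal recruitment.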
T2 sequence (O75376 2251-2273 partner, one chain of several): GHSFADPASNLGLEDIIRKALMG

Row | Compound | inhibition at 0.1 µM [1] | EC50 [2] | EC50 [3]
1 | N#Cc1ccc(Cl)c(-c2cc(=O)c3c(F)c(C4=CCNCC4)c(F)cc3[nH]2)c1 [Example 93, 4-chloro-3-(5,7-difluoro-4-oxo-6-(1,2,3,6-tetrahydropyridin-4-yl)-14-dihydroquinolin-2-yl)benzonitrile] | 48% | 1000 to 10000 nM | 1000 to 10000 nM
2 | N#Cc1ccc(Cl)c(-c2cc(=O)c3c(F)c(C4CCNCC4)c(F)cc3[nH]2)c1 [Example 94, 4-chloro-3-(5,7-difluoro-4-oxo-6-(piperidin-4-yl)-1,4-dihydroquinolin-2-yl)benzonitrile] | 27% | 1000 to 10000 nM | 1000 to 10000 nM
3 | CC(=O)N1CCC(c2c(F)cc3[nH]c(-c4cc(C#N)ccc4Cl)cc(=O)c3c2F)CC1 [Example 95, 3-(6-(1-acetylpiperidin-4-yl)-5,7-difluoro-4-oxo-1,4-dihydroquinolin-2-yl)-4-chlorobenzonitrile] | 87% | 100 to 1000 nM | 100 to 1000 nM
4 | CC(=O)N1CCN(c2c(F)cc3[nH]c(-c4cc(C#N)ccc4Cl)cc(=O)c3c2F)CC1 [Example 96, 3-(6-(4-acetylpiperazin-1-yl)-5,7-difluoro-4-oxo-1,4-dihydroquinolin-2-yl)-4-chlorobenzonitrile] | 82% | 1000 to 10000 nM | 1000 to 10000 nM
5 | N#Cc1ccc(Cl)c(-c2cc(=O)c3c(F)c(-c4cc[nH]n4)c(F)cc3[nH]2)c1 [Example 97, 4-chloro-3-(5,7-difluoro-4-oxo-6-(1H-pyrazol-3-yl)-1,4-dihydroquinolin-2-yl)benzonitrile] | 52% | 100 to 1000 nM | 100 to 1000 nM
6 | N#Cc1ccc(Cl)c(-c2cc(=O)c3c(F)c(N4CC5(COC5)C4)c(F)cc3[nH]2)c1 [Example 98, 4-chloro-3-(5,7-difluoro-4-oxo-6-(2-oxa-6-azaspiro[3.3]heptan-6-yl)-14-dihydroquinolin-2-yl)benzonitrile] | 87% | 1000 to 10000 nM | 100 to 1000 nM
7 | CN1CC2(C1)CN(c1c(F)cc3[nH]c(-c4cc(C#N)ccc4Cl)cc(=O)c3c1F)C2 [Example 99, 4-chloro-3-(5,7-difluoro-6-(6-methyl-2,6-diazaspiro[3.3]heptan-2-yl)-4-oxo-1,4-dihydroquinolin-2-yl)benzonitrile] | 59% | > 10000 nM | > 10000 nM
8 | CN(C)C1CN(c2c(F)cc3[nH]c(-c4cc(C#N)ccc4Cl)cc(=O)c3c2F)C1 [Example 100, 4-chloro-3-(6-(3-(dimethylamino)azetidin-1-yl)-5,7-difluoro-4-oxo-1,4-dihydroquinolin-2-yl)benzonitrile] | 87% | 1000 to 10000 nM | 1000 to 10000 nM
9 | CS(=O)(=O)C1CN(c2c(F)cc3[nH]c(-c4cc(C#N)ccc4Cl)cc(=O)c3c2F)C1 [Example 101, 4-chloro-3-(5,7-difluoro-6-(3-(methylsulfonyl)azetidin-1-yl)-4-oxo-1,4-dihydroquinolin-2-yl)benzonitrile] | 52% | 1000 to 10000 nM | 1000 to 10000 nM
10 | CN(C)C(=O)C1CN(c2c(F)cc3[nH]c(-c4cc(C#N)ccc4Cl)cc(=O)c3c2F)C1 [Example 102, 1-(2-(2-chloro-5-cyanophenyl)-5,7-difluoro-4-oxo-1,4-dihydroquinolin-6-yl)-N,N-dimethylazetidine-3-carboxamide] | 81% | 1000 to 10000 nM | 1000 to 10000 nM
11 | COC1CN(c2c(F)cc3[nH]c(-c4cc(C#N)ccc4Cl)cc(=O)c3c2F)C1 [Example 103, 4-chloro-3-(5,7-difluoro-6-(3-methoxyazetidin-1-yl)-4-oxo-1,4-dihydroquinolin-2-yl)benzonitrile] | 82% | 1000 to 10000 nM | 1000 to 10000 nM
12 | CO[C@H]1CCN(c2c(F)cc3[nH]c(-c4cc(C#N)ccc4Cl)cc(=O)c3c2F)C1 [Example 104, (S)-4-chloro-3-(5,7-difluoro-6-(3-methoxypyrrolidin-1-yl)-4-oxo-1,4-dihydroquinolin-2-yl)benzonitrile] | 78% | 100 to 1000 nM | 100 to 1000 nM
